Measured values as given in patent publication US11497701B2, “Multi-functional anti-microbial polymers and compositions containing same” (priority 2015, dated 2022).

Experiments:
[1] = tested on: Aspergillus niger; assay: Antifungal susceptibility disc test (rings of inhibition); format: cell-based; conditions: disc on Sabouraud plate, 48 hrs at room temperature; polymers 100 μg per disc, Amphotericin B 20 μg; NI = No Inhibition
Protocol: (§1) Each polymer was applied to sterile filter paper discs as a solution (15 mg of compound in 3 mL of solvent). Each disc received 20 μL of solution, and was allowed to dry, giving a final concentration of 100 μg of compound per disc. Adapted from Messer et al., (2007), this protocol was used to test novel compounds for antifungal properties against yeasts and fungi. Compounds were tested for antifungal activity against pure cultures of Saccharomyces cerevisiae, Candida albicans supplied by Ward's Natural Science Ltd. and Aspergillus niger and Aspergillus fumigatus supplied by […]. (Inverness Medical, Ottawa, Ontario, Canada). All cultures were maintained on Sabouraud agar. […] The cultures of A. niger and A. fumigatus were transferred, using an inoculation loop, to new Sabouraud agar and grown for 48 hrs. at 27° C., and 35° C. respectively, to cause sporulation. Triplicates of all the plates and broth cultures were made in case of error or contamination. Using a sterile swab, and aseptic techniques, the cell suspension of S. cerevisiae, and C. albicans were transferred to Sabouraud agar plates and spread evenly, ensuring that the entire surface was inoculated. They were then left to dry for 10 minutes. From the plates containing A. niger and A. fumigatus two small circles containing fungal growth of the A Niger or A Fumigatus fungi were cut from the agar plates, and using a glass/PTFE tissue homogenizer, were mixed and homogenized with 5 ml of sterile MilliQ water to create a suspension of fungal spores. Using a sterile swab, and aseptic techniques, the spore inocula of A. niger and A. fumigatus were transferred to Sabouraud agar plates and spread evenly, ensuring that the entire surface was inoculated. They were then left to dry for 10 minutes. Amphotericin B (20 μg) premade discs were used as a control. Three antibiotic discs containing different compounds were place equidistant apart on each Sabouraud plate. Each compound had three replicates per species. Plates containing S. cerevisiae, and C. albicans were incubated for 18-24 hrs at 37° C., A. niger for 48 hrs at room temperature, and A. fumigatus for 18-24 hrs at 35° C. […] If clear rings of inhibition were present, the diameter was measured twice using a caliper. Halos indicated partial inhibition of growth (Hicks et al., 2008).

[2] = tested on: Candida albicans; assay: as above; format: cell-based; conditions: disc on Sabouraud plate, 18-24 hrs at 37° C.; polymers 100 μg per disc, Amphotericin B 20 μg; NI = No Inhibition
Protocol: as §1

[3] = tested on: Aspergillus fumigatus; assay: as above; format: cell-based; conditions: disc on Sabouraud plate, 18-24 hrs at 35° C.; polymers 100 μg per disc, Amphotericin B 20 μg; NI = No Inhibition
Protocol: as §1

[4] = tested on: Saccharomyces cerevisiae; assay: as above; format: cell-based; conditions: disc on Sabouraud plate, 18-24 hrs at 37° C.; polymers 100 μg per disc, Amphotericin B 20 μg; NI = No Inhibition
Protocol: as §1

[5] = tested on: Escherichia coli; assay: Antibacterial susceptibility disc test (rings of inhibition); format: cell-based; set-up: unit not given here; conditions: NI = No Inhibition; for diameter of ring of inhibition, E. coli (Table 5): all 10 μg; for diameter of ring of inhibition, E. coli: disc on Mueller-Hinton plate, 18-24 hrs at 37° C., polymers 100 μg per disc, control discs at given load
Protocol: (§2) Compounds were tested for antibacterial activity, as described in Ma et al. (2011), against pure cultures of Escherichia coli, Pseudomonas aeruginosa, Bacillus cereus, Proteus mirabilis/hauseri, and Staphylococcus aureus, supplied by Ward's Natural Science Ltd. (St. Catherines, Ontario, Canada). All cultures were maintained on Tryptic Soy agar. These cultures were then transferred using an inoculation loop to 10 mL of Tryptic soy broth, and grown at 37° C. for 24 hours. Triplicates of plate and broth cultures were made in case of error or contamination. Using a sterile swab, and aseptic techniques, the bacterial broth inocula were transferred to Mueller-Hinton plates and spread evenly, ensuring that the entire surface was inoculated. They were then left to dry for 3-5 minutes. The following control discs were used: Penicillin (10 μg), Tetracycline (30 μg), Chloramphenicol (30 μg), and Ampicillin (10 μg). Four antibiotic discs containing different compounds were placed equidistant from each other on a Mueller-Hinton plate. Each compound had three replicates per species. Plates were incubated for 18-24 hrs at 37° C., and then observed for rings of inhibition. If clear rings of inhibition were present, the diameter was measured twice using a caliper. […] Each polymer was applied to sterile filter paper discs as a solution (15 mg of compound in 3 mL of solvent). Each disc received 20 μL of solution, and was allowed to dry, giving a final concentration of 100 μg of compound per disc.

[6] = tested on: Pseudomonas aeruginosa; assay: as above; format: cell-based; conditions: disc on Mueller-Hinton plate, 18-24 hrs at 37° C.; polymers 100 μg per disc, control discs at given load; NI = No Inhibition
Protocol: as §2

[7] = tested on: Proteus mirabilis/hauseri; assay: as above; format: cell-based; conditions: disc on Mueller-Hinton plate, 18-24 hrs at 37° C.; polymers 100 μg per disc, control discs at given load; NI = No Inhibition
Protocol: as §2

[8] = tested on: Staphylococcus aureus; assay: as above; format: cell-based; conditions: disc on Mueller-Hinton plate, 18-24 hrs at 37° C.; polymers 100 μg per disc, control discs at given load; NI = No Inhibition
Protocol: as §2

[9] = tested on: Bacillus cereus; assay: as above; format: cell-based; conditions: disc on Mueller-Hinton plate, 18-24 hrs at 37° C.; polymers 100 μg per disc, control discs at given load; NI = No Inhibition
Protocol: as §2

[10] = Viscosity measurements (Brookfield Synchrolectric viscometer model LVF); format: physicochemical; conditions: 1% weight solution in distilled water, pH 7 and 25° C.
Protocol: The values in centi-poise (mPa·s, m=milli) were calculated as per the specifications set out by the instrument manufacturer.
The viscosity of the compositions described in Example 5, were also similarly measured, as well as 1% wt. solutions of pure BAC and hp-AETA.

Molecule | diameter of ring of inhibition, A. niger [1] | diameter of ring of inhibition, C. albicans [2] | diameter of ring of inhibition, A. fumigatus [3] | diameter of ring of inhibition, S. cerevisiae [4] | diameter of ring of inhibition, E. coli (Table 5) [5] | diameter of ring of inhibition, E. coli [5] | diameter of ring of inhibition, P. aeruginosa [6] | diameter of ring of inhibition, P. hauseri [7] | diameter of ring of inhibition, S. aureus [8] | diameter of ring of inhibition, B. cereus [9] | viscosity [10] [mPa·s]
C[C@@H]1[C@H](O)[C@@H](C)/C=C/C=C/C=C/C=C/C=C/C=C/C=C/[C@H](O[C@@H]2O[C@H](C)[C@@H](O)[C@H](N)[C@@H]2O)C[C@@H]2O[C@](O)(C[C@@H](O)C[C@@H](O)[C@H](O)CC[C@@H](O)C[C@@H](O)CC(=O)O[C@H]1C)C[C@H](O)[C@H]2C(=O)O [Amphotericin B] | 15.5 | 13.6 | 12.5 | 8.39 | – | – | – | – | – | – | –
CC1(C)S[C@@H]2[C@H](NC(=O)[C@H](N)c3ccccc3)C(=O)N2[C@H]1C(=O)O [Ampicillin] | – | – | – | – | 15.4 | 15.0 | 10.2 | 11 | 40.4 | 13.5 | –
O=C(N[C@H](CO)[C@H](O)c1ccc([N+](=O)[O-])cc1)C(Cl)Cl [Chloramphenicol] | – | – | – | – | 17.4 | 19.4 | 21.5 | 14.4 | 24.1 | 26.3 | –
CN(C)[C@@H]1C(O)=C(C(N)=O)C(=O)[C@@]2(O)C(O)=C3C(=O)c4c(O)cccc4[C@@](C)(O)[C@H]3C[C@@H]12 [Tetracycline] | – | – | – | – | 25.3 | 20.4 | 9.9 | 13.7 | 24.7 | 20.3 | –
Benzalkonium chloride [BAC] | – | – | – | – | – | – | – | – | – | – | 3.1
Penicillin | – | – | – | – | 19.5 | 19.5 | 7.0 | 19 | 43.8 | – | –
